Converted amounts (≈) assume the structure as drawn. Like-named read-outs stand apart in the source and are kept apart here.
Experiments:
S. aureus ATCC 29213 = assay: MIC by broth microdilution (CLSI), quality control strain S. aureus ATCC 29213; type: cell-based, Staphylococcus aureus; conditions: multiple values when multiple MIC assays were conducted; for MIC: Staphylococcus aureus, ATCC29213, S. aureus ATCC 29213
Description: Minimum inhibitory concentrations were determined using the quality control strain S. aureus ATCC 29213 (Table 1) by the broth microdilution method according to guidelines of the Clinical and Laboratory Standards Institute (CLSI) (Cockerill, F. R.; et al., 2012, Methods for dilution antimicrobial susceptibility tests for bacteria that grow aerobically; approved standard-ninth edition. MA07-A9. Clinical and Laboratory Standard Institute, Wayne, Pa.). […] Published quality control ranges for gepotidacin and ciprofloxacin were used to validate each assay. MICs for selected compounds were also determined using a USA 300 strain of MRSA (Hidron, et al., Lancet Infect. Dis. 2009, 9:384-392). Vancomycin was used as an additional control.

USA 300 strain of MRSA = assay: MIC by broth microdilution, USA 300 strain of MRSA; type: cell-based, Staphylococcus aureus; conditions: multiple values when multiple MIC assays were conducted; for MIC: Staphylococcus aureus, read-out: MIC USA300
Description: Minimum inhibitory concentrations were determined using the quality control strain S. aureus ATCC 29213 (Table 1) by the broth microdilution method according to guidelines of the Clinical and Laboratory Standards Institute (CLSI) (Cockerill, F. R.; et al., 2012, Methods for dilution antimicrobial susceptibility tests for bacteria that grow aerobically; approved standard-ninth edition. MA07-A9. Clinical and Laboratory Standard Institute, Wayne, Pa.). […] MICs for selected compounds were also determined using a USA 300 strain of MRSA (Hidron, et al., Lancet Infect. Dis. 2009, 9:384-392). Vancomycin was used as an additional control.

[1] = target: T1, Staphylococcus aureus gyrase (Staphylococcus aureus, UniProt P0A0K8+P20831); assay: Staphylococcus aureus gyrase supercoiling assay; type: biochemical
T1 construct: purchased Inspiralis, Norwich, UK
T1 sequence (P20831 whole entry): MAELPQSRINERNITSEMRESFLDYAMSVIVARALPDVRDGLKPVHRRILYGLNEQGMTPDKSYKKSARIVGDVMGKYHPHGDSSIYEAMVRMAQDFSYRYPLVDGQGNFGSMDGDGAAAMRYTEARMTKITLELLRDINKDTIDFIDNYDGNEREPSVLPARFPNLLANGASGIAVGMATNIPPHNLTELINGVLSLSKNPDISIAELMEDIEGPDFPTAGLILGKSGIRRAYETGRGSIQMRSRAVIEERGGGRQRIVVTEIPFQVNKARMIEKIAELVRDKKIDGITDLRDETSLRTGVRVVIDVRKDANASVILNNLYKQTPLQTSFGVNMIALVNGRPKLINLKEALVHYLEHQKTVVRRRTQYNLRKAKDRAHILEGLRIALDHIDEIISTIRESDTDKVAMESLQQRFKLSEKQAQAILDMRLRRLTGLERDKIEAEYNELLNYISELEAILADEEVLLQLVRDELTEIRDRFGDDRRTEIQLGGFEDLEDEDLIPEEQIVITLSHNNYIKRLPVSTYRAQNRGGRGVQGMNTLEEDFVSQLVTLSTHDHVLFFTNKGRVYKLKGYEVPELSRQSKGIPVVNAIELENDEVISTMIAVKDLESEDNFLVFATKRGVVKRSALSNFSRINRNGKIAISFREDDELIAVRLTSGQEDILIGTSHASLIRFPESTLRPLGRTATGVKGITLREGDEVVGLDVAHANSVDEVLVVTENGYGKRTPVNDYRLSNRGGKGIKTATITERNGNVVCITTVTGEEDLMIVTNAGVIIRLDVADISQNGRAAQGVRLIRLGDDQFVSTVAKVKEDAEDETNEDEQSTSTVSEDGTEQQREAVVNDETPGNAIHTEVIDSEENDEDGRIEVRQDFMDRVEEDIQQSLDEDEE
T1 sequence (P0A0K8 whole entry): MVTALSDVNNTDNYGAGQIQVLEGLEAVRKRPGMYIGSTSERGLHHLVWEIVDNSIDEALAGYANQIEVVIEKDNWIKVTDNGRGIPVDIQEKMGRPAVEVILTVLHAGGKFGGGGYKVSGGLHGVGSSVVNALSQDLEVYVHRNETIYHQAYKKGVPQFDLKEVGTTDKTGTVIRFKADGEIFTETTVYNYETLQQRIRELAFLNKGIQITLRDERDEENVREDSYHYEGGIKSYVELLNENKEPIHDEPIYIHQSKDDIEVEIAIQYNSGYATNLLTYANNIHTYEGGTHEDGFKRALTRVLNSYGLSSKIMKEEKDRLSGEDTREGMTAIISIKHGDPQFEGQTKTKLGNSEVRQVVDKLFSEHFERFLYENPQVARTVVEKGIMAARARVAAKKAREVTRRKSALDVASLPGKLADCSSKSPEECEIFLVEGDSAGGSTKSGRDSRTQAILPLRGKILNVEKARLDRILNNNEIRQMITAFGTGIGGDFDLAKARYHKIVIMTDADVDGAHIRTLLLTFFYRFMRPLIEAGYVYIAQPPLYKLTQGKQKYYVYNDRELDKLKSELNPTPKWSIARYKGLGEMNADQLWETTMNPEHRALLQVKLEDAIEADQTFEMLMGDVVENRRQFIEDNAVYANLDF
Description: (§1) A subset of analogs was used to assess the degree of inhibition of DNA gyrase or TopoIV (Inspiralis, Norwich, UK), both to establish the mechanism of action and to evaluate the relative balance of inhibitory activities (Table 1). A subset of compound was also assayed to determine the degree of inhibition of human topoisomerase II (Inspiralis, Norwich, UK)).
(§2) In all experiments, the activity of the enzymes was determined prior to the testing of the compounds and 1 unit (U) was defined as the amount of enzyme required to just fully supercoil, relax or decatenate the substrate (see explanation of gels). This amount of enzyme was initially used in determination of control inhibitor activity. These experiments were performed in duplicate.
(§3) For all assays the final DMSO concentration was 1%. 10 mM stocks of the compounds were serially diluted into 10% DMSO at 1 mM, 0.5 mM, 0.25 mM, 0.1 mM, 0.05 mM, 0.01 mM, 0.005 mM, 0.001 mM, 0.0005 mM, 0.0001 mM and 0.00005 mM. 3.0 μl of each dilution was added to a 30 μl assay.
(§4) Bands were visualised by ethidium staining for 20 minutes and destaining for 20 minutes. Gels were scanned using documentation equipment (GeneGenius, Syngene, Cambridge, UK) and % inhibition levels (where appropriate) were obtained with gel scanning software. (GeneTools, Syngene, Cambridge, UK)
Staphylococcus aureus gyrase supercoiling
1 U of DNA gyrase was incubated with 0.5 μg of relaxed pBR322 DNA in a 30 μl reaction at 37° C. for 30 minutes under the following conditions: 40 mM HEPES. KOH (pH 7.6), 10 mM magnesium acetate, 10 mM DTT, 2 mM ATP, 500 mM potassium glutamate and 0.05 mg/ml BSA.
Each reaction was stopped by the addition of 30 μl chloroform/iso-amyl alcohol (26:1) and 30 μl Stop Dye (40% sucrose (w/v), 100 mM Tris.HCl (pH 7.5), 10 mM EDTA, 0.5 μg/ml bromophenol blue), before being loaded on a 1.0% TAE gel run at 70V for 2 hours.

[2] = target: T2, Staphylococcus aureus Topo IV (Staphylococcus aureus, UniProt P0C1S7+P0C1U9); assay: Staphylococcus aureus Topo IV decatenation assay; type: biochemical
T2 construct: purchased Inspiralis, Norwich, UK
T2 sequence (P0C1S7 whole entry): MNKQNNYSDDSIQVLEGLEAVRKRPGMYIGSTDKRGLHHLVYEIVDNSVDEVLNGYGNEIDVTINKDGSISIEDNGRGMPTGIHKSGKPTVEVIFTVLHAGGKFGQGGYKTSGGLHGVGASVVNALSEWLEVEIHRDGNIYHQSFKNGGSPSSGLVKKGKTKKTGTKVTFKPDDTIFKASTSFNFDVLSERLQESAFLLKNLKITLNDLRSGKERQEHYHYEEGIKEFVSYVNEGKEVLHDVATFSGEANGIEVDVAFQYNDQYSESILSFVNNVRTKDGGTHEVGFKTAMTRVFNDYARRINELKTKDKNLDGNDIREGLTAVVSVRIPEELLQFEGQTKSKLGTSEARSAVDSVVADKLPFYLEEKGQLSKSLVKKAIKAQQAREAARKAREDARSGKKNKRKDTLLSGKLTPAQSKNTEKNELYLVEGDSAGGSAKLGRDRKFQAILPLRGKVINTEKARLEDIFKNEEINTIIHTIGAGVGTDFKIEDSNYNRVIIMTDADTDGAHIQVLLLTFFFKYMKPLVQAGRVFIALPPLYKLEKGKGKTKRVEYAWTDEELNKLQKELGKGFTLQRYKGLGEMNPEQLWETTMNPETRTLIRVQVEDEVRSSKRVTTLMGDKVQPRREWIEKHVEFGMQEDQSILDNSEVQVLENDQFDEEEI
T2 sequence (P0C1U9 whole entry): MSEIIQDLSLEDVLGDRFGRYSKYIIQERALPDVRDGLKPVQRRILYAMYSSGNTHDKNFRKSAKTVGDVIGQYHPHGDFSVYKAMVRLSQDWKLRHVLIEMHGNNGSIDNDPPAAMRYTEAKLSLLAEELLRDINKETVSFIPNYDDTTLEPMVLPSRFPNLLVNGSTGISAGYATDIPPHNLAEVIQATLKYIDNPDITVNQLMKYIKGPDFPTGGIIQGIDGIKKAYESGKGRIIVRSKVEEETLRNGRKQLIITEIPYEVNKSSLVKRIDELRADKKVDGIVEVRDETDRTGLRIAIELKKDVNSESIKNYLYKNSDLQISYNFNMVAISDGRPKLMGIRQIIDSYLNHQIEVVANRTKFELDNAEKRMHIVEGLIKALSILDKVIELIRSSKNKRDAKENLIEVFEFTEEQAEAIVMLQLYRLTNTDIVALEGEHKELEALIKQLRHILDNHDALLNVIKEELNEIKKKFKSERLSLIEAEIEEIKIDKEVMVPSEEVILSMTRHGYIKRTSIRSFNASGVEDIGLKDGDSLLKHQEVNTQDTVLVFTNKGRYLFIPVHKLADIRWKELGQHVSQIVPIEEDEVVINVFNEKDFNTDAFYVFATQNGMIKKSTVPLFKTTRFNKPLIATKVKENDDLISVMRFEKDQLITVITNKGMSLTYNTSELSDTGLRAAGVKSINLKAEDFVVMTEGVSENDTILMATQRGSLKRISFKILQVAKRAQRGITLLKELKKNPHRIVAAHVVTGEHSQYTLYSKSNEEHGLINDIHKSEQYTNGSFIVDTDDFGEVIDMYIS
Description: as §1, §2, §3, §4
Staphylococcus aureus Topo IV Decatenation Assay
1 U of Topo IV was incubated with 200 ng kDNA DNA in a 30 μl reaction at 37° C. for 30 minutes under the following conditions: 50 mM Tris.HCl (7.5), 5 mM MgCl2, 5 mM DTT, 1.5 mM ATP, 350 mM potassium glutamate and 0.05 mg/ml BSA.
Each reaction was stopped by the addition of 30 μl chloroform/iso-amyl alcohol (26:1) and 30 μl Stop Dye, before being loaded on a 1.0% TAE gel run at 70V for 2 hours.

human topo II = target: T3, human topo II (Homo sapiens, UniProt P11388); assay: Topoisomerase II (alpha) decatenation assay; type: biochemical; conditions: activity remaining at 100 μM compound; read-out: hTopoll (% activity remaining at 100 μM)
T3 construct: purchased Inspiralis, Norwich, UK
T3 sequence (P11388 whole entry): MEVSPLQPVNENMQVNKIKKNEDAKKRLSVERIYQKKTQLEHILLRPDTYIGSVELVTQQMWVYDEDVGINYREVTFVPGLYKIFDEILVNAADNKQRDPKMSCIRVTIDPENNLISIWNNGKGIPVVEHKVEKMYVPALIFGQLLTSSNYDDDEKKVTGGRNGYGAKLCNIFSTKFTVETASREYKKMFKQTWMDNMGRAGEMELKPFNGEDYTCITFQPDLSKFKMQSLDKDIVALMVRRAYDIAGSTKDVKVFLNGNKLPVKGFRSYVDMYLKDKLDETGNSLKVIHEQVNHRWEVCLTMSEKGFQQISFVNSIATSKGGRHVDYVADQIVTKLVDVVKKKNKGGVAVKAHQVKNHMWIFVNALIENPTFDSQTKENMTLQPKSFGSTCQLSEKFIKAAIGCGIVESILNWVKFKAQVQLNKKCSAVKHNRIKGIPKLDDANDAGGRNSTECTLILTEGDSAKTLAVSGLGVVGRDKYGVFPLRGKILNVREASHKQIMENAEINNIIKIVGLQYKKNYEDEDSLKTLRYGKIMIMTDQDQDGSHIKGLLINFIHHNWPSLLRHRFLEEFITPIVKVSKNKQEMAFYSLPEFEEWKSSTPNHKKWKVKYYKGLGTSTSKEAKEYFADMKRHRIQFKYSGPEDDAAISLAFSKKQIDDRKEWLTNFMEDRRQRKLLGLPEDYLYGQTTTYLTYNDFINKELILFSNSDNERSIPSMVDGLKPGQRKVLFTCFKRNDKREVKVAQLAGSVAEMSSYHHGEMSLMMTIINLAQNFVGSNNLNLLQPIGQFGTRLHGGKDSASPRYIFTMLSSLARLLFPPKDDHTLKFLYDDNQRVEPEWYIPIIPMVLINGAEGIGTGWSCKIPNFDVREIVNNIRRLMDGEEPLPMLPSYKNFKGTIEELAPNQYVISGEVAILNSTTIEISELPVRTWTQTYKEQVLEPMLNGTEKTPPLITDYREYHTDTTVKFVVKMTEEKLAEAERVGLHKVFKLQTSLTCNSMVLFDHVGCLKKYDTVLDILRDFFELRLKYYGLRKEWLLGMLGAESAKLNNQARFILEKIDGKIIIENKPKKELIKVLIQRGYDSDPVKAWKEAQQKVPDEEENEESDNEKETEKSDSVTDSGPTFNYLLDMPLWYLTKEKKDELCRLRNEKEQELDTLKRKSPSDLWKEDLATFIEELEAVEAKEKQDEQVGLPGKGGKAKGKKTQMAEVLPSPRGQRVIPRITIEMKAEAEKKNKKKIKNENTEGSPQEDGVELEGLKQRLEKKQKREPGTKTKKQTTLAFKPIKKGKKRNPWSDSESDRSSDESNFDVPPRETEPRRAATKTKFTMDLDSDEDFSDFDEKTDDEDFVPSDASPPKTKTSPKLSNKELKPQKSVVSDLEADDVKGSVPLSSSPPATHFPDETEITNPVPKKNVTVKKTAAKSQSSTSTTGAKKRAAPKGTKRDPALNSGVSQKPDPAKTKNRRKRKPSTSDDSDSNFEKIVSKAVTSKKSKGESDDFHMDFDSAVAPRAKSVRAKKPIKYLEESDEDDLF
Description: as §1, §2, §3, §4
Topoisomerase II (Alpha) Decatenation Assay
Each reaction was stopped by the addition of 30 μl chloroform/iso-amyl alcohol (26:1) and 30 μl Stop Dye, before being loaded on a 1.0% TAE gel run at 90V for 2 hours.

[3] = S. aureus DNA gyrase supercoiling, read-out: Gyrase IC50
[4] = S. aureus Topo IV decatenation, read-out: TopolV Decat IC50

Compound	MIC (S. aureus ATCC 29213)	MIC (USA 300 strain of MRSA)	IC50 [1]	IC50 [2]	remaining activity at 100 µM (human topo II)	MIC USA300 (USA 300 strain of MRSA)	IC50 [1, 3]	IC50 [2, 4]	MIC 29213 (S. aureus ATCC 29213; S. aureus ATCC 29213)
COc1ccc2ncc(F)c(CC[C@H]3OC[C@H](NCc4ccc5c(c4)OCCO5)CO3)c2n1 [AB-0015, N-((2,3-dihydrobenzo[b][1,4]dioxin-6-yl)methyl)-2-(2-(3-fluoro-6-methoxy-1,5-naphthyridin-4-yl)ethyl)-trans-1,3-dioxan-5-amine]	≤ 0.25 µg/mL	0.125 µg/mL (≈ 0.274 µM)	30 nM	980 nM	55%				
COc1ccc2ncc(F)c(C(O)C[C@H]3OC[C@H](NCc4ccc5c(c4)OCCO5)CO3)c2c1 (stereo partly drawn) [AB-0016, 2-(5-(((2,3-dihydrobenzo[b][1,4]dioxin-6-yl)methyl)amino)-trans-1,3-dioxan-2-yl)-1-(3-fluoro-6-methoxyquinolin-4-yl)ethan-1-ol]	0.125 µg/mL (≈ 0.266 µM)	0.25 µg/mL (≈ 0.531 µM)	90 nM	7980 nM	77.4%	0.25 µg/mL (≈ 0.531 µM)			
COc1ccc2ncc(F)c(CC[C@H]3OC[C@H](NCc4cc5c(cn4)OCCC5)CO3)c2n1 [AB-0018]	≤ 0.25 µg/mL	0.25 µg/mL (≈ 0.55 µM)			79.8%		160 nM	5330 nM	
COc1ccc2ncc(F)c(C(O)C[C@H]3OC[C@H](NCc4cc5c(cn4)OCCC5)CO3)c2c1 (stereo partly drawn) [AB-0020, 2-(5-(((3,4-dihydro-2H-pyrano[2,3-c]pyridin-6-yl)methyl)amino)-trans-1,3-dioxan-2-yl)-1-(3-fluoro-6-methoxyquinolin-4-yl)ethan-1-ol]	0.5 µg/mL (≈ 1.06 µM)	1 µg/mL (≈ 2.13 µM)			92.9%		130 nM	15200 nM	
COc1ccc2nccc(CC[C@H]3OC[C@H](NCc4ccc5c(n4)NC(=O)CS5)CO3)c2c1 [AB-0021, 6-(((2-(2-(6-methoxyquinolin-4-yl)ethyl)-trans-1,3-dioxan-5-yl)amino)methyl)-2H-pyrido[3,2-b][1,4]thiazin-3(4H)-one]	0.5 µg/mL (≈ 1.07 µM)	0.5 µg/mL (≈ 1.07 µM)			91.1%		590 nM	> 100000 nM	
COc1ccc2nccc(CC[C@H]3OC[C@H](NCc4ccc(Cl)c(F)c4)CO3)c2c1 [AB-0030, N-(4-chloro-3-fluorobenzyl)-2-(2-(6-methoxyquinolin-4-yl)ethyl)-trans-1,3-dioxan-5-amine]	2 µg/mL (≈ 4.64 µM)	1 µg/mL (≈ 2.32 µM)			97.8%		950 nM	> 100000 nM	
COc1ccc2nccc(CC[C@H]3OC[C@H](NC/C=C/c4ccccc4)CO3)c2c1 [AB-0051]	1 µg/mL (≈ 2.47 µM)	1 µg/mL (≈ 2.47 µM)			93.7%		420 nM	50000 to 100000 nM	
COc1ccc2nccc(CC[C@H]3OC[C@H](NCc4ccc(Cl)cc4)CO3)c2c1 [AB-0052, N-(4-chlorobenzyl)-2-(2-(6-methoxyquinolin-4-yl)ethyl)-trans-1,3-dioxan-5-amine]	1 µg/mL (≈ 2.42 µM)	4 µg/mL (≈ 9.69 µM)			97.8%		1160 nM	> 100000 nM	
COc1ccc2nccc(CC[C@H]3OC[C@H](NCc4ccc5c(n4)NC(=O)CO5)CO3)c2c1 [AB-0055, 6-(((2-(2-(6-methoxyquinolin-4-yl)ethyl)-trans-1,3-dioxan-5-yl)amino)methyl)-2H-pyrido[3,2-b][1,4]oxazin-3(4H)-one]	0.5 µg/mL (≈ 1.11 µM)	1 µg/mL (≈ 2.22 µM)			99.1%		780 nM	> 100000 nM	
COc1ccc2nccc(CC[C@H]3OC[C@H](NCc4ccc5c(c4)NC(=O)CO5)CO3)c2c1 [AB-0057, 6-(((2-(2-(6-methoxyquinolin-4-yl)ethyl)-trans-1,3-dioxan-5-yl)amino)methyl)-2H-benzo[b][1,4]oxazin-3(4H)-one]	1 µg/mL (≈ 2.22 µM)	1 µg/mL (≈ 2.22 µM)			93%		740 nM	> 100000 nM	2 µg/mL (≈ 4.45 µM)
COc1ccc2ncc(F)c(CC[C@H]3OC[C@H](NCc4ccc5c(n4)NC(=O)CS5)CO3)c2n1 [AB-0059, 6-(((2-(2-(3-fluoro-6-methoxy-1,5-naphthyridin-4-yl)ethyl)-trans-1,3-dioxan-5-yl)amino)methyl)-2H-pyrido[3,2-b][1,4]thiazin-3(4H)-one]	≤ 0.5 µg/mL	0.25 µg/mL (≈ 0.515 µM)			95.7%		170 nM	> 100000 nM	
COc1ccc2ncc(F)c(CC[C@H]3OC[C@H](NCc4ccc5c(n4)NC(=O)CO5)CO3)c2n1 [AB-0060]	0.125 µg/mL (≈ 0.266 µM)	0.25 µg/mL (≈ 0.533 µM)	130 nM	5000 to 10000 nM	83.1%				
COc1ccc2ncc(F)c(CC[C@H]3OC[C@H](NCc4cc5c(cn4)OCCO5)CO3)c2n1 [AB-0061, N-((2,3-dihydro-[1,4]dioxino[2,3-c]pyridin-7-yl)methyl)-2-(2-(3-fluoro-6-methoxy-1,5-naphthyridin-4-yl)ethyl)-trans-1,3-dioxan-5-amine]	0.125 µg/mL (≈ 0.274 µM)	0.25 µg/mL (≈ 0.548 µM)			69.6%		420 nM	61000 nM	
COc1ccc2ncc(F)c(CC[C@H]3OC[C@H](NCc4ccc(F)c(F)c4)CO3)c2n1 [AB-0062, N-(3,4-difluorobenzyl)-2-(2-(3-fluoro-6-methoxy-1,5-naphthyridin-4-yl)ethyl)-trans-1,3-dioxan-5-amine]	2 µg/mL (≈ 4.61 µM)	4 µg/mL (≈ 9.23 µM)			90.7%		4430 nM	> 100000 nM	
